{"source": "patent EP3315028B1", "about": "“USE OF INHIBITORS OF NLP PROTEINS AS PHYTOPHARMACEUTICALS FOR PLANT PATHOGEN CONTROL” (Kemijski Institut, priority 2016, dated 2018)", "key": {"NLPPya [1]": {"target": "T1, NLPPya (Pythium aphanidermatum, UniProt Q9SPD4)", "T1 sequence (Q9SPD4 18-234 limits assumed)": "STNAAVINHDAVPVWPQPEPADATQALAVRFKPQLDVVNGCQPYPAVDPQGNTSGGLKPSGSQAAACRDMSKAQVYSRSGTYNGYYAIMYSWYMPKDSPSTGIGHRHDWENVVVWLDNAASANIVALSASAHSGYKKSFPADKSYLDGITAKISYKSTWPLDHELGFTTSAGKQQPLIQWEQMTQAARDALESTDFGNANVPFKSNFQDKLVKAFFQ", "experiment": "Infiltration of NLPs into tobacco leaves in the presence of compounds (inhibition of necrosis)", "format": "in vivo", "conditions": "compound at the final 1 mM concentration; NLPPya 250 nM; tobacco leaves (Figure 5)", "procedure": "NLP proteins: NLPPya from the oomycete, Pythium aphanidermatum, was prepared in recombinant form by the use of heterologous expression system for protein production in Escherichia coli. NLPPp from oomycete Phytophthora parasitica was prepared in yeast Pichia pastoris. Proteins were purified with chromatographic procedures and stored in water solutions at -20 °C.\nWe have injected 50 µL of solution."}, "NLPPp": {"target": "T2, NLPPp (Phytophthora nicotianae, UniProt Q9AT28)", "T2 construct": "made in house; host or cells: Pichia pastoris", "T2 sequence (Q9AT28 20-237)": "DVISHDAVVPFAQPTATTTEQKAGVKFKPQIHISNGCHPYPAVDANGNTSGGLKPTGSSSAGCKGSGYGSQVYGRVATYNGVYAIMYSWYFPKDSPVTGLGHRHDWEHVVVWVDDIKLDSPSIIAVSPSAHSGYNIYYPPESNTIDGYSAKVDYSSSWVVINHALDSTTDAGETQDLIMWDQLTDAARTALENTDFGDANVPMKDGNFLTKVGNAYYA", "experiment": "Interactions of compounds with NLP proteins determined by surface plasmon resonance (NLPPp)", "format": "binding, Phytophthora parasitica", "conditions": "Biacore T100, CM5 chip, Steady State Affinity model; 50 mM MES, 140 mM NaCl, 5 % DMSO, pH 5,8; 25 °C; n=number of titrations"}, "NLPPya [2]": {"target": "T1, NLPPya", "experiment": "Interactions of compounds with NLP proteins determined by surface plasmon resonance (NLPPya)", "format": "binding", "conditions": "Biacore T100, CM5 chip, Steady State Affinity model; 50 mM MES, 140 mM NaCl, 5 % DMSO, pH 5,8; 25 °C; n=number of titrations"}}, "data": [{"compound": "Cc1ccc2occ(C3NC(C(=O)O)CS3)c(=O)c2c1", "note": "(stereo not drawn) [Compound I, 2-(6-methyl-4-oxochromen-3-yl)-1,3-thiazolidin-3-ium-4-carboxylate]", "values": [{"measurement": "necrosis after infiltration of NLP proteins in the presence of compound", "setting": "NLPPya [1]", "value": "Necrosis was not visible"}]}, {"compound": "COc1ccc(Nc2ccccc2C(=O)O)cc1", "note": "[Compound IIa, 2-[(4-methoxyphenyl)amino]benzoic acid]", "values": [{"measurement": "necrosis after infiltration of NLP proteins in the presence of compound", "setting": "NLPPya [1]", "value": "Necrosis was not visible"}, {"measurement": "Kd", "setting": "NLPPp", "value": 71.9, "unit": "µM"}, {"measurement": "Kd", "setting": "NLPPya [2]", "value": 131, "unit": "µM"}]}, {"compound": "Cc1ccc(Nc2ccccc2C(=O)O)cc1", "note": "[IIb, 2-[(4-methylphenyl)amino]benzoic acid]", "values": [{"measurement": "Kd", "setting": "NLPPp", "value": 83.2, "unit": "µM"}, {"measurement": "Kd", "setting": "NLPPya [2]", "value": 98, "unit": "µM"}]}, {"compound": "O=C(O)c1ccccc1Nc1cccc(F)c1", "note": "[IIc, N-(3-Fluorophenyl)anthranilic acid]", "values": [{"measurement": "Kd", "setting": "NLPPp", "value": 62.4, "unit": "µM"}, {"measurement": "Kd", "setting": "NLPPya [2]", "value": 77.3, "unit": "µM"}]}, {"compound": "Cc1ccc(C)c(Nc2c(C(=O)O)cc([N+](=O)[O-])cc2[N+](=O)[O-])c1", "note": "[IId, 2-[(2,5-dimethylphenyl)amino]-3,5-dinitrobenzoic acid]", "values": [{"measurement": "Kd", "setting": "NLPPp", "value": 39.7, "unit": "µM"}]}]}
